SMILES strings stand for the structures. Structures can show the parent of a compound that is named as a salt. Where two headings read alike, the source gives them in different places.

A short description of data set [1]: Stability of pitavastatin calcium crystalline form at 40° C./75% RH and 25° C./60% RH (water by KF, related substances). The class given is physicochemical. On the procedure: In general, the stability of pitavastatin calcium crystalline form having water content 5% wt/wt at 40° C./75% RH and 25° C./60% RH is shown in Table-1.
For data set [2] the following is noted: cited from earlier work; for purity / water content / total impurities: US '987 A1 Table 1; for total impurities: in % (unit assumed).
The test system of data set [3] is patients with hypercholesterolaemia. The note with it: cited from earlier work.
[4] abbreviates: 1 month, 40° C. ± 2° C., RH 75% ± 5%.
Setting [5] is: 2 month, 40° C. ± 2° C., RH 75% ± 5%.
The mark [6] stands for this setting: 3 month, 25° C. ± 2° C., RH 60% ± 5%.
The mark [7] stands for this setting: 3 month, 40° C. ± 2° C., RH 75% ± 5%.
[8] abbreviates: kept at 40° C. (air tight), after 90 days.
Setting [9] is: kept at 40° C. (air tight), initial.
Setting [10] is: kept in open air, after 90 days.

Regarding `O=C(O)C[C@H](O)C[C@H](O)/C=C/c1c(C2CC2)nc2ccccc2c1-c1ccc(F)cc1` [pitavastatin calcium, (3R,5S)-7-[2-cyclopropyl-4-(4-flourophenyl)-quinolin-3-yl]-3,5-dihydroxy-6-(E)-heptenoic acid calcium salt], the Related Substances: 5-oxo in data set [1] (setting [4]) was 0.11%; in data set [1] (setting [5]) it was 0.15%; in data set [1] (setting [6]), 0.12%; in data set [1] (setting [7]), 0.14%; in data set [1] (Initial), 0.07%. The Related Substances: Desflouro in data set [1] (setting [4]), in data set [1] (setting [5]), in data set [1] (setting [6]), in data set [1] (setting [7]) and in data set [1] (Initial) was 0.05% in each case. The Related Substances: Diastereomer was found to be 0.11% in data set [1] (setting [4]); 0.11% in data set [1] (setting [5]); 0.12% in data set [1] (setting [6]); 0.11% in data set [1] (setting [7]); 0.17% in data set [1] (Initial). For the same compound, the Related Substances: Total Impurities in data set [1] (setting [4]) was determined as 0.28%; in data set [1] (setting [5]), 0.31%; in data set [1] (setting [6]), 0.36%; in data set [1] (setting [7]), 0.39%; in data set [1] (Initial), 0.32%. Moreover, the “Water by KF” value stood at 2.9 % w/w in data set [1] (setting [4]); 4.3 % w/w in data set [1] (setting [5]); 3.9 % w/w in data set [1] (setting [6]); 4.2 % w/w in data set [1] (setting [7]); 3.0 % w/w in data set [1] (Initial). The Related Substances: Lactone in data set [1] (setting [6]) is 0.07%; in data set [1] (setting [7]), 0.09%. Besides, the purity is reported as 99.64 in data set [2] (setting [8]); 99.38% in data set [2] (setting [9]); 96.49 in data set [2] (setting [10]); 99.38% in data set [2] (kept in open air, initial). The water content in data set [2] (setting [8]) was 7.81%; in data set [2] (setting [9]), “about 7.89”; in data set [2] (setting [10]), 1.77%; in data set [2] (kept in open air, initial), “about 7.89”. For the same compound, the total impurities is listed as 0.211 in data set [2] (setting [8]); 0.179 in data set [2] (setting [9]); 2.099 in data set [2] (setting [10]); 0.179 in data set [2] (kept in open air, initial). Further, the “stability during the storage” value in data set [2] (pitavastatin calcium which has become amorphous, reported in US '987 A1) is on record as “very poor stability”. Further, the safety and tolerability entry in data set [3] (treatment of patients with hypercholesterolaemia) was “safe and well tolerated”.

On to `O=C(O)C[C@H](O)C[C@H](O)/C=C/c1c(C2CC2)nc2ccccc2c1-c1ccc(F)cc1` [pitavastatin], for which, in data set [3] (on the basis of reported data, dose-dependent), the potency result is “equivalent to that of atorvastatin”.

The values are drawn from patent publication US9034901B2, “Pitavastatin calcium and process for its preparation” (Cadila Healthcare Limited, priority 2010, dated 2015).
